Target: T1, Gamma-glutamyl hydrolase (Homo sapiens, UniProt Q92820)
T1 sequence (Q92820 whole entry): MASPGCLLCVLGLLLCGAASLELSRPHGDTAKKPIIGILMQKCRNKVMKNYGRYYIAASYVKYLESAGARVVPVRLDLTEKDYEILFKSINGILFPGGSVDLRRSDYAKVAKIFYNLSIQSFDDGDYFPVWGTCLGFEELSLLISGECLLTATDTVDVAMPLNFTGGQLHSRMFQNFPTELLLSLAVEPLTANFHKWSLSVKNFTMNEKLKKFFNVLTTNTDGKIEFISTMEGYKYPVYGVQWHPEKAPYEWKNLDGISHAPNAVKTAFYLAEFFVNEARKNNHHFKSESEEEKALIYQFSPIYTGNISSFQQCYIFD
Test: ChEBML_68750
Conditions: read-out: kon (M-1-s-1)
Experimental: Compound was tested for inhibitory potency against gamma-Glutamyl Hydrolase.

Structure (SMILES)	kon [M⁻¹ s⁻¹]
COP(=O)(N[C@@H](CCC(=O)O)C(=O)O)c1ccccc1 (some centres not stated)	4400
COP(=O)(N[C@@H](CCC(=O)O)C(=O)O)OC	177000
